Laboratory results: PMC4885489, “Prediction of Drug-Drug Interactions Arising from CYP3A induction Using a Physiologically Based Dynamic Model” (Drug Metabolism and Disposition, 2016)
Read-outs that look alike come from different tables or passages of the source.

Columns and labels:
CYP3A [1] = details: mean of four human hepatocyte donors; three-parameter fit; Indmax = Emax + 1
CYP3A [2] = details: mean of four human hepatocyte donors; three-parameter fit; Indmax = Emax + 1; remark: listed apart in the source
[3] = human, in vivo
[4] = cited from earlier work
[5] = cited from earlier work; remark: listed apart in the source
[6] = cited from earlier work; remark: listed apart in the source
CYP2C9 = system: CYP2C9; design: method as in ref (Sahi et al., 2009); details: ref (Sahi et al., 2009), cited from earlier work
CYP2B6 = system: CYP2B6; design: method as in ref (Hariparsad et al., 2008); details: ref (Hariparsad et al., 2008), cited from earlier work
CYP3A [7] = experiment: in vitro; details: human, cryopreserved human hepatocytes, probe testosterone (6β-hydroxytestosterone formation)
CYP3A [8] = experiment: in vitro; details: human, cryopreserved human hepatocytes
in vitro = details: human, human liver microsomes
[9] = ref Meta-analysis (Odar-Cederlof and Borga, 1974); (Tassaneeyakul et al., 1992); (Ducharme et al., 1995) and 3 others; cited from earlier work
[10] = ref (Kurata and Wilkinson, 1974); cited from earlier work
[11] = Monoprotic Acid; ref Meta-analysis (Pade and Stavchansky, 1998); (Avdeef et al., 2000); (Taillardat-Bertschinger et al., 2002); (Loeuillet-Ritzler and Faller, 2004); cited from earlier work
rCYP2C9 [12] = details: read-out: rCYP2C9 Km; ref (Rowland et al., 2008); cited from earlier work
rCYP2C19 [13] = details: read-out: rCYP2C19 Km; ref (Giancarlo et al., 2001); (Bajpai et al., 1996); cited from earlier work
rCYP2C9 [14] = experiment: Recombinant enzyme metabolism kinetics, rCYP2C9; details: Calculated from CLiv using retrograde model
rCYP2C19 [15] = experiment: Recombinant enzyme metabolism kinetics, rCYP2C19; details: Calculated from CLiv using retrograde model

For `CCC1(c2ccccc2)C(=O)NC(=O)NC1=O` [Phenobarbital, phenobarbital], the “Activity Indmax” value (CYP3A [1]) was 21.1 fold, the “mRNA Indmax” value (CYP3A [2]) was 44.2 fold and the ka [3] was 2 h⁻¹. For the same molecule, the fa ([4]; ref (Varma et al., 2012)) was 1, the “Vss (Minimal PBPK)” value ([5]; in vivo) was 0.54 L/kg and the CLR ([6]; in vivo) was 0.07 L/h. The fe ([6]; in vivo) was 0.24.

For `O=C1NC(=O)C(c2ccccc2)(c2ccccc2)N1` [Phenytoin, phenytoin], the “Activity Indmax” value (CYP3A [1]) is given as 13.6 fold, the “mRNA Indmax” value (CYP3A [2]) is given as 24.5 fold and the “CYP2C9 Indmax (Fold, Emax +1)” value (CYP2C9) is given as 10.7 Fold. For the same molecule, the EC50 (CYP2C9; read-out: CYP2C9 IndC50) was 9.8 µM, the “CYP2B6 Indmax (Fold, Emax +1)” value (CYP2B6) was 1.9 Fold and the EC50 (CYP2B6; read-out: CYP2B6 IndC50) was 15.3 µM. The EC50 (CYP3A [7]) was 51.3 µM, the EC50 (CYP3A [8]) was 123 µM and the microsomal CLint (in vitro) was 0.97 µL/min/mg. For the same molecule, the fu [9] was 0.10, the “B:P” value [10] was 0.61 and the “pKa(s)” value [11] was 8.15. The fa ([4]; ref (Bochner et al., 1973)) was 0.9, the ka ([4]; ref (Tassaneeyakul et al., 1992)) was 0.53 h⁻¹ and the “Vss (Minimal PBPK)” value ([5]; ref Meta-analysis (Gugler et al., 1976), (Odar-Cederlof and Borga, 1974), (Glazko et al., 1969), (Lund et al., 1974), (Perucca et al., 1978)) was 0.57 L/kg. For the same molecule, the CLR ([6]; from fe 0.008, ref (Kozelka and Hine, 1943), (Borga et al., 1979)) was 0.015 L/h, the fe ([6]; ref (Kozelka and Hine, 1943), (Borga et al., 1979)) was 0.008 and the CLiv ([6]; ref Meta-analysis (Gugler et al., 1976), (Glazko et al., 1969), (Lund et al., 1974), (Perucca et al., 1978)) was 1.88 L/h. The Km (rCYP2C9 [12]) was 4.1 µM, the Km (rCYP2C19 [13]) was 36.8 µM and the “rCYP2C9 Vmax” value (rCYP2C9 [14]) was 0.24 pmol/min/pmol. For the same molecule, the “rCYP2C19 Vmax” value (rCYP2C19 [15]) was 1.53 pmol/min/pmol.
